Test results as given in PubChem BioAssay (NCI).
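Five compound concentrations were applied to cells in 96-well plates for 48 hours; endpoints were derived by simple linear interpolation of the resulting dose-response curve. Definition used: TGI = concentration required for complete inhibition of growth.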

Legend:
Assay in all cases: growth of human tumour cells (NCI), 48 h
NCI-H522 lung = tested on: NCI-H522 lung
NCI-H460 lung = tested on: NCI-H460 lung
A498 renal = tested on: A498 renal
OVCAR-4 ovarian = tested on: OVCAR-4 ovarian
NCI-H226 lung = tested on: NCI-H226 lung
CAKI-1 renal = tested on: CAKI-1 renal
NCI-H23 lung = tested on: NCI-H23 lung
DU-145 prostate = tested on: DU-145 prostate
786-0 renal = tested on: 786-0 renal
SK-MEL-5 melanoma = tested on: SK-MEL-5 melanoma
RPMI-8226 leukemia = tested on: RPMI-8226 leukemia
T-47D breast = tested on: T-47D breast
COLO 205 colon = tested on: COLO 205 colon
HCT-15 colon = tested on: HCT-15 colon
HT29 colon = tested on: HT29 colon
SK-MEL-28 melanoma = tested on: SK-MEL-28 melanoma
OVCAR-8 ovarian = tested on: OVCAR-8 ovarian
CCRF-CEM leukemia = tested on: CCRF-CEM leukemia
SF-539 CNS = tested on: SF-539 CNS
SNB-75 CNS = tested on: SNB-75 CNS
EKVX NSCLC = tested on: EKVX NSCLC
SN12C renal = tested on: SN12C renal
RXF 393 renal = tested on: RXF 393 renal
UACC-62 melanoma = tested on: UACC-62 melanoma
IGROV1 ovarian = tested on: IGROV1 ovarian
UACC-257 melanoma = tested on: UACC-257 melanoma
LOX IMVI melanoma = tested on: LOX IMVI melanoma
HL-60(TB) leukemia = tested on: HL-60(TB) leukemia
SR leukemia = tested on: SR leukemia
HOP-92 NSCLC = tested on: HOP-92 NSCLC
UO-31 renal = tested on: UO-31 renal
MOLT-4 leukemia = tested on: MOLT-4 leukemia
MCF7 breast = tested on: MCF7 breast
PC-3 prostate = tested on: PC-3 prostate
SF-295 CNS = tested on: SF-295 CNS
ACHN renal = tested on: ACHN renal
TK-10 renal = tested on: TK-10 renal
K-562 leukemia = tested on: K-562 leukemia
MDA-MB-231 breast = tested on: MDA-MB-231 breast
HOP-62 NSCLC = tested on: HOP-62 NSCLC
HCT-116 colon = tested on: HCT-116 colon
M14 melanoma = tested on: M14 melanoma
MALME-3M melanoma = tested on: MALME-3M melanoma
OVCAR-5 ovarian = tested on: OVCAR-5 ovarian
OVCAR-3 ovarian = tested on: OVCAR-3 ovarian
NCI/ADR-RES ovarian = tested on: NCI/ADR-RES ovarian
SNB-19 CNS = tested on: SNB-19 CNS
U251 CNS = tested on: U251 CNS
A549 NSCLC = tested on: A549 NSCLC
SW-620 colon = tested on: SW-620 colon
KM12 colon = tested on: KM12 colon
MDA-MB-435 = tested on: MDA-MB-435
SF-268 CNS = tested on: SF-268 CNS

Measured: TGI

O=C(NC1C(=O)NC(CCc2ccccc2)NC1=O)OCc1ccccc1 (stereo not drawn)
> 100 µM: all assays above
